Measurements reported in patent publication US20240059703A1 (AMGEN INC., priority 2021, published 2024).
pIC50: −log10 of the molar value.

How the values were obtained:
[1] = test system: A549 (human lung carcinoma) cells; assay: Cell Viability Assay (CellTiter-Glo), A549; format: cell-based; details: Homo sapiens, A549, 72 h
Method in brief: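 Cells grown in RPMI 1640 with 10% FBS were seeded at 1.67E+04 cells/mL and left overnight at 37° C., 5% CO2. They were then exposed to serially diluted compound for 72 h, after which CellTiter-Glo luminescence was read, normalized to DMSO, and fitted to a 4-parameter logistic model for IC50.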

KRAS G12C = KRAS G12C (Homo sapiens (Human), UniProt P01116, C118A/G12C); assay: 2 h coupled exchange assay; format: biochemical; details: Avg 2 h Coupled exchange IC50, 2 h compound pre-incubation
Sequence of KRAS G12C (P01116 other isoform, or with tags, fused parts or gaps G12C/C118A): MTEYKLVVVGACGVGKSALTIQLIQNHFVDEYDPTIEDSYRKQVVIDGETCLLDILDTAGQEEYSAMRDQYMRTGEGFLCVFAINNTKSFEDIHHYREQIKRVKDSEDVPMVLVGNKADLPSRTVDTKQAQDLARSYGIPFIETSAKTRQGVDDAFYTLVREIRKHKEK
Method: The term “2 h coupled exchange assay” or “20 h coupled exchange assay” as used herein refers to the assay described in the Section entitled “BIOLOGICAL EVALUATION.”

[2] = test system: MIA PaCa-2 (human pancreatic carcinoma) cells; assay: Cell Viability Assay (CellTiter-Glo), MIA PaCa-2; format: cell-based; details: Homo sapiens, MIA PaCa-2, 72 h
Method: Serially-diluted compound or DMSO was added to the cells, and plates were incubated at 37° C., 5% CO2 for 72 h. Cell viability was measured using a CellTiter-Glo® Luminescent Cell Viability Assay kit (Promega) according to the manufacturer's protocol. The luminescence signal of treated samples was normalized to DMSO control, and data were analyzed using a 4-parameter logistic model to calculate IC50 values.

| SMILES | pIC50 [1] | pIC50 (KRAS G12C) | pIC50 [2] |
| --- | --- | --- | --- |
| C=CC(=O)N1CC2(CCN(c3nc4c(c(-c5ccc(F)cc5Cl)c3C#N)COC(c3scnc3C)C4)C2)C1 [Example 23-20, (7R)-4-(2-chloro-4-fluorophenyl)-7-(4-methyl-1,3-thiazol-5-yl)-2-(2-(2-propenoyl)-2,6-diazaspiro[3.4]octan-6-yl)-7,8-dihydro-5H-pyrano[4,3-b]pyridine-3-carbonitrile (7S)-4-(2-chloro-4-fluorophenyl)-7-(4-methyl-1,3-thiazol-5-yl)-2-(2-(2-propenoyl)-2,6-diazaspiro[3.4]octan-6-yl)-7,8-dihydro-5H-pyrano[4,3-b]pyridine-3-carbonitrile] | 5.08 | 6.64 | 5.94 |
| C=CC(=O)N1CC2(CCN(c3nc4c(c(-c5ccc(F)cc5F)c3C#N)CCC(c3scnc3C)=C4)C2)C1 [Example 23-21, 4-(2,4-difluorophenyl)-7-(4-methyl-1,3-thiazol-5-yl)-2-(2-(2-propenoyl)-2,6-diazaspiro[3.4]octan-6-yl)-5,6-dihydro-3-quinolinecarbonitrile] | 5.42 | 7.13 | 6.15 |
| C=CC(=O)N1CC2(CCN(c3nc4c(c(-c5c(F)cccc5Cl)c3C#N)CCC(c3scnc3C)=C4)C2)C1 [Example 23-22, 4-(2-chloro-6-fluorophenyl)-7-(4-methyl-1,3-thiazol-5-yl)-2-(2-(2-propenoyl)-2,6-diazaspiro[3.4]octan-6-yl)-5,6-dihydro-3-quinolinecarbonitrile] | < 5.30 | 6.74 | 6.14 |
| C=CC(=O)N1CC2(CCN(c3nc4c(c(-c5ccc(F)cc5Cl)c3C#N)CO[C@@H](c3scnc3C)C4)C2)C1 [Example 23-27, (7R)-4-(2-chloro-4-fluorophenyl)-7-(4-methyl-1,3-thiazol-5-yl)-2-(2-(2-propenoyl)-2,6-diazaspiro[3.4]octan-6-yl)-7,8-dihydro-5H-pyrano[4,3-b]pyridine-3-carbonitrile] | < 5.30 | 7.01 | 6.11 |
| C=CC(=O)N1CC2(CCN(c3nc4c(c(-c5ccc(F)cc5Cl)c3C#N)CO[C@H](c3scnc3C)C4)C2)C1 [Example 23-28, (7S)-4-(2-chloro-4-fluorophenyl)-7-(4-methyl-1,3-thiazol-5-yl)-2-(2-(2-propenoyl)-2,6-diazaspiro[3.4]octan-6-yl)-7,8-dihydro-5H-pyrano[4,3-b]pyridine-3-carbonitrile] | 5.25 | 6.38 | 5.85 |
| C=CC(=O)N1CC2(CCN(c3nc4c(c(-c5c(O)cccc5F)c3C#N)CCC(c3scnc3C)=C4)C2)C1 [Example 23-29, 4-(2-fluoro-6-hydroxyphenyl)-7-(4-methyl-1,3-thiazol-5-yl)-2-(2-(2-propenoyl)-2,6-diazaspiro[3.4]octan-6-yl)-5,6-dihydro-3-quinolinecarbonitrile] | < 5.30 | 7.32 | 5.88 |
| C=CC(=O)N1CC2(CCN(c3nc4c(c(-c5ccc(F)cc5)c3C#N)CCC(c3scnc3C)=C4)C2)C1 [Example 23-30, 4-(4-fluorophenyl)-7-(4-methyl-1,3-thiazol-5-yl)-2-(2-(2-propenoyl)-2,6-diazaspiro[3.4]octan-6-yl)-5,6-dihydro-3-quinolinecarbonitrile] | 5.08 | 6.88 | 5.71 |
| C=CC(=O)N1CC2(CCN(c3nc4c(c(-c5cc(OC)ccc5Cl)c3C#N)CCC(c3scnc3C)=C4)C2)C1 [Example 23-31, 4-(2-chloro-5-methoxyphenyl)-7-(4-methyl-1,3-thiazol-5-yl)-2-(2-(2-propenoyl)-2,6-diazaspiro[3.4]octan-6-yl)-5,6-dihydro-3-quinolinecarbonitrile] | 5.17 | 6.77 | 5.65 |
| C=CC(=O)N1CC2(CCN(c3nc4c(c(-c5c(O)cccc5Cl)c3C#N)CCC(c3scnc3C)=C4)C2)C1 [Example 23-34, 4-(2-chloro-6-hydroxyphenyl)-7-(4-methyl-1,3-thiazol-5-yl)-2-(2-(2-propenoyl)-2,6-diazaspiro[3.4]octan-6-yl)-5,6-dihydro-3-quinolinecarbonitrile] | < 5.30 | 7.01 | 5.96 |
| C=CC(=O)N1CC2(CCN(c3nc4c(c(-c5c(O)cccc5Cl)c3C#N)COC(c3scnc3C)C4)C2)C1 [Example 23-35, (7R)-4-(2-chloro-6-hydroxyphenyl)-7-(4-methyl-1,3-thiazol-5-yl)-2-(2-(2-propenoyl)-2,6-diazaspiro[3.4]octan-6-yl)-7,8-dihydro-5H-pyrano[4,3-b]pyridine-3-carbonitrile (7S)-4-(2-chloro-6-hydroxyphenyl)-7-(4-methyl-1,3-thiazol-5-yl)-2-(2-(2-propenoyl)-2,6-diazaspiro[3.4]octan-6-yl)-7,8-dihydro-5H-pyrano[4,3-b]pyridine-3-carbonitrile] | 4.68 | 6.08 | 5.62 |
| C=CC(=O)N1CC2(CCN(c3nc4c(c(-c5c(F)cccc5Cl)c3C#N)COC(c3scnc3C)C4)C2)C1 [Example 23-36, (7R)-4-(2-chloro-6-fluorophenyl)-7-(4-methyl-1,3-thiazol-5-yl)-2-(2-(2-propenoyl)-2,6-diazaspiro[3.4]octan-6-yl)-7,8-dihydro-5H-pyrano[4,3-b]pyridine-3-carbonitrile (7S)-4-(2-chloro-6-fluorophenyl)-7-(4-methyl-1,3-thiazol-5-yl)-2-(2-(2-propenoyl)-2,6-diazaspiro[3.4]octan-6-yl)-7,8-dihydro-5H-pyrano[4,3-b]pyridine-3-carbonitrile] | 5.03 | 6.57 | 5.82 |
| C=CC(=O)N1CC2(CCN(c3nc4c(c(-c5ccccc5F)c3C#N)CCC3(c5scnc5C)C4C3(F)F)C2)C1 (stereo not drawn) [Example 23-37] | 4.84 | 6.75 | 5.51 |
| C=CC(=O)N1CC2(CCN(c3nc4c(c(-c5cc(OC)ccc5F)c3C#N)CCC(c3scnc3C)=C4)C2)C1 [Example 23-38, 4-(2-fluoro-5-methoxyphenyl)-7-(4-methyl-1,3-thiazol-5-yl)-2-(2-(2-propenoyl)-2,6-diazaspiro[3.4]octan-6-yl)-5,6-dihydro-3-quinolinecarbonitrile] | 5.10 | 6.87 | 5.81 |
| C=CC(=O)N1CC2(CCN(c3nc4c(c(-c5ccccc5OC)c3C#N)CCC(c3scnc3C)=C4)C2)C1 [Example 23-39, 4-(2-methoxyphenyl)-7-(4-methyl-1,3-thiazol-5-yl)-2-(2-(2-propenoyl)-2,6-diazaspiro[3.4]octan-6-yl)-5,6-dihydro-3-quinolinecarbonitrile] | 5.11 | 6.40 | 5.63 |
| C=CC(=O)N1CC2(CCN(c3nc4c(c(-c5ccccc5O)c3C#N)CCC(c3scnc3C)=C4)C2)C1 [Example 23-40, 4-(2-hydroxyphenyl)-7-(4-methyl-1,3-thiazol-5-yl)-2-(2-(2-propenoyl)-2,6-diazaspiro[3.4]octan-6-yl)-5,6-dihydro-3-quinolinecarbonitrile] | 5.14 | 6.87 | 5.64 |
| C=CC(=O)N1CC2(CCN(c3nc4c(c(-c5cccc(O)c5F)c3C#N)CCC(c3scnc3C)=C4)C2)C1 [Example 23-43, 4-(2-fluoro-3-hydroxyphenyl)-7-(4-methyl-1,3-thiazol-5-yl)-2-(2-(2-propenoyl)-2,6-diazaspiro[3.4]octan-6-yl)-5,6-dihydro-3-quinolinecarbonitrile] | 5.08 | 6.52 | 5.34 |
| C=CC(=O)N1CC2(CCN(c3nc4c(c(-c5cccc(OC)c5F)c3C#N)CCC(c3scnc3C)=C4)C2)C1 [Example 23-44, 4-(2-fluoro-3-methoxyphenyl)-7-(4-methyl-1,3-thiazol-5-yl)-2-(2-(2-propenoyl)-2,6-diazaspiro[3.4]octan-6-yl)-5,6-dihydro-3-quinolinecarbonitrile] | 5.23 | 6.16 | 5.51 |
| C=CC(=O)N1CC2(CCN(c3nc4c(c(-c5cc(O)ccc5Cl)c3C#N)CCC(c3scnc3C)=C4)C2)C1 [Example 23-45, 4-(2-chloro-5-hydroxyphenyl)-7-(4-methyl-1,3-thiazol-5-yl)-2-(2-(2-propenoyl)-2,6-diazaspiro[3.4]octan-6-yl)-5,6-dihydro-3-quinolinecarbonitrile] | < 5.30 | 7.48 | 5.97 |
| C=CC(=O)N1CC2(CCN(c3nc4c(c(-c5cccc(F)c5F)c3C#N)CCC(c3scnc3C)=C4)C2)C1 [Example 23-46, 4-(2,3-difluorophenyl)-7-(4-methyl-1,3-thiazol-5-yl)-2-(2-(2-propenoyl)-2,6-diazaspiro[3.4]octan-6-yl)-5,6-dihydro-3-quinolinecarbonitrile] | 5.27 | 6.94 | 5.82 |
| C=CC(=O)N1CC2(CCN(c3nc4c(c(-c5cc(O)ccc5F)c3C#N)CCC(c3scnc3C)=C4)C2)C1 [Example 23-47, 4-(2-fluoro-5-hydroxyphenyl)-7-(4-methyl-1,3-thiazol-5-yl)-2-(2-(2-propenoyl)-2,6-diazaspiro[3.4]octan-6-yl)-5,6-dihydro-3-quinolinecarbonitrile] | < 5.30 | 7.36 | < 5.30 |
